Test results as given in PubChem BioAssay AID1159562 (GlaxoSmithKline (GSK), 2015).
pIC50: −log10 of the molar value. Calls of active or inactive are those of the source. The rule behind the calls is not given here.

These molecules were tested on Trypanosoma brucei growth inhibition, luminescence (assay: antitrypanosomal activity against T. brucei – luminescence (AID 1159562);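 note: parasites grew with compound for 24 h before the luminescence read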).
In the case of `c1ccc(Nc2nc3ccccc3[nH]2)nc1`, the pIC50 was 4.60.
With `c1ccc(CCNCc2cncc3nc(-c4cnccn4)n(C4CCCCC4)c23)cc1` the IC50 was > 40 µM (inactive).
Work on `COc1ncc(-c2ccc3ncnc(N4CCOCC4)c3c2)cc1NS(C)(=O)=O` yielded a pIC50 of 6.30.
`Cc1cc(C)c(C#N)c(SCC(=O)c2ccc3c(c2)OCO3)n1` was tested, and the pIC50 was 4.80.
`COCCn1c(-c2ccc3c(c2)OCO3)cnc1NCc1ccccc1OC` showed a pIC50 of 4.60.
In the case of `COc1ccc(NS(=O)(=O)c2cc(NC(=O)c3ccc([N+](=O)[O-])s3)ccc2OC)cc1`, the pIC50 was 6.89.
With `O=[N+]([O-])c1cccc(Nc2cncc(-c3ccccc3CO)c2)c1` the IC50 was > 40 µM (inactive).
`O=C(Nc1cccc(F)c1)N1CCC(Oc2cccc(-c3cccnc3)c2)CC1` was tested, and the IC50 was > 40 µM (inactive).
In the case of `N#Cc1ccccc1S(=O)(=O)N1CCN(C(=O)CNC(=O)c2ccc3c(c2)OCO3)CC1`, the IC50 was > 40 µM (inactive).
`CC(C)c1cc(Nc2cc(Cc3ccccc3)nc(NC3CCC(O)CC3)n2)n[nH]1` (stereo unspecified) gave a pIC50 of 7.00.
`COCc1cc(Nc2ccccc2)nc(-c2ccccn2)n1` was tested, and the IC50 was > 40 µM (inactive).
In the case of `Cc1[nH]c2ccccc2c(=O)c1Cc1c(C)[nH]c2ccccc2c1=O`, the IC50 was > 40 µM (inactive).
With `O=C(CCCn1cnc([N+](=O)[O-])n1)Nc1cccc(Cl)c1` the IC50 was > 40 µM (inactive).
Work on `Nc1nonc1-c1nc2cncc(C(=O)N3CC[C@H](N)C3)c2n1CC1CC1` yielded a pIC50 of 6.10.
With `COc1cccc(S(=O)(=O)Nc2ccc3c(c2)CC(N2CCC(NC(=O)C4CC4)CC2)C3)c1` (stereo unspecified) the pIC50 was 6.10.
`COc1ccc(-c2csc(NC(=O)c3ccc([N+](=O)[O-])s3)n2)cc1OC` gave a pIC50 of 6.20.
`CS(=O)(=O)N1CCC(Nc2ncc(Br)c(Nc3cccc(F)c3C(N)=O)n2)CC1` gave a pIC50 of 7.80.
`O=C(NCc1ccncc1)c1ccccc1N1CCCN(C(=O)Cc2ccc(F)c(F)c2)CC1` was tested, and the pIC50 was 4.70.
`NS(=O)(=O)c1ccc(CNC(=O)c2ccc([N+](=O)[O-])s2)cc1` was tested, and the pIC50 was 6.60.
With `Cc1cccnc1CN1CCN(CCCOc2ccc(-c3ccc(C(N)=O)cc3)cc2)CC1` the IC50 was > 40 µM (inactive).
With `O=C(NCCCn1cnc2ccccc21)c1ccc(NC(=O)c2ccco2)cc1` the pIC50 was 6.60.
Work on `COc1cccc(C(=O)[C@H]2C[C@@H]2CN(Cc2ccccn2)Cc2ccccn2)c1` yielded a pIC50 of 4.70.
`CN(C)S(=O)(=O)c1ccc(-c2cnc(N)c(-c3nc4ccc(F)cc4[nH]3)c2)cc1` gave a pIC50 of 6.00.
With `Cc1ccccc1OCC(=O)N1CCCN(c2cccnn2)CC1` the IC50 was > 40 µM (inactive).
With `O=C(Nc1ccccc1)Nc1nc(-c2ccccn2)cs1` the pIC50 was 6.00.
`COc1ccc(Nc2nccc(N(C)c3n[nH]c4c(F)cccc34)n2)cc1S(C)(=O)=O` was tested, and the pIC50 was 5.00.
`CC(Cn1ccnc1)NC(=O)C1CC1c1cccc(Cl)c1Cl` (stereo unspecified) was tested, and the IC50 was > 40 µM (inactive).
`O=C(c1cnn(-c2ccccc2)n1)N1CCCC(n2ccnc2)C1` (stereo unspecified) showed a pIC50 of 4.49.
`COc1ccccc1C1CC(c2ccc(NS(C)(=O)=O)cc2)=NN1C(=O)c1cccs1` (stereo unspecified) was tested, and the pIC50 was 4.70.
`Cc1nc2c(-c3ncn[nH]3)cc(NC(=O)Cc3ccccc3)cn2c1C` was tested, and the pIC50 was 5.00.
Molecule `CS(=O)(=O)c1ccc(Nc2nccc(-c3cnn4ncccc34)n2)cc1` has a pIC50 of 6.70.
Molecule `Cc1c(CNC(=O)c2ccc(Cn3cc(Cl)c([N+](=O)[O-])n3)cc2)cnn1C` has a pIC50 of 5.00.
With `COc1ccc2nccc(NC(=O)C3(OC)CCN(CC(O)c4ccc5c(c4)OCCO5)CC3)c2n1` (stereo unspecified) the pIC50 was 6.30.
Work on `O=C(NNC(=O)c1ccccn1)c1ccc(-c2ccccc2)cc1` yielded a pIC50 of 6.20.
For `Cc1cc(Nc2cc(C3CC3)[nH]n2)nc(N2CCCC2)n1`, the pIC50 was 7.20.
For `Cc1nc2nc(C)c(Cc3ccc(C(C)C)cc3)c(=O)n2[nH]1`, the IC50 was > 40 µM (inactive).
`O=C(Nc1ccccc1C(=O)Nc1ccccn1)c1ccco1` was tested, and the pIC50 was 6.30.
`O=C(Nc1nccs1)c1ccccc1Cn1cc([N+](=O)[O-])cn1` showed a pIC50 of 6.30.
For `CCCN1CCN(Cc2ccc(S(=O)(=O)Nc3cccc(C)c3)cc2)CC1`, the IC50 was > 40 µM (inactive).
`CC(C)Nc1nc(Cl)nc2ccccc12` was tested, and the pIC50 was 4.89.
Molecule `O=C(NCCc1csc(-c2cccc(F)c2)n1)c1ccco1` has a pIC50 of 6.20.
`O=C(Nc1nc(-c2ccccn2)cs1)C1CCc2ccccc2C1` (stereo unspecified) was tested, and the pIC50 was 5.49.
With `COc1ccc(Nc2nc(-c3ccccn3)cs2)c(OC)c1` the pIC50 was 4.60.
For `COc1ccccc1CNc1cc(C2CC2)nc(-c2nccn2C)n1`, the pIC50 was 5.70.
For `O=C(Nc1ccc(C(F)(F)F)cc1)NC1(C(=O)NCc2ccco2)CCCCC1`, the pIC50 was 6.00.
Molecule `CCOc1cc(NCCCN2CCN(C)CC2)c2ncccc2c1` has a pIC50 of 4.70.
In the case of `CC(C)C[C@H](NC(=O)c1csc(-c2cccs2)n1)C(=O)NC1(C#N)CC1`, the pIC50 was 7.00.
`NC(=O)c1ccccc1Nc1nc(NC2CCCCC2)nc2[nH]ccc12` showed a pIC50 of 5.00.
In the case of `CN(Cc1nc2ccccc2s1)C(=O)C=Cc1cc2ccccc2o1`, the IC50 was > 40 µM (inactive).
`CCOc1ccc(Nc2ccc(S(=O)(=O)N3CCN(C)CC3)cc2[N+](=O)[O-])cc1OCC` was tested, and the pIC50 was 4.49.
`CCOc1ccc(OCC(=O)N2c3ccccc3CC2C(=O)NC)cc1` (stereo unspecified) was tested, and the pIC50 was 6.10.
`CCCn1c(NC(=O)CCn2cc(Br)cn2)nc2ccccc21` showed a pIC50 of 5.10.
In the case of `O=C(CCc1ccc(-c2ccccc2)o1)N1CCN(c2ccc(O)cc2)CC1`, the pIC50 was 4.40.
With `Cc1cc2cncn2c(C2CCCCN2C(=O)c2cccs2)n1` (stereo unspecified) the IC50 was > 40 µM (inactive).
`COC(=O)c1ccc(-c2cnc3ccc(NCc4ccccn4)nn23)cc1` showed a pIC50 of 6.00.
`Cc1cccc(NS(=O)(=O)c2ccc3c(c2)C(=O)c2cc(S(=O)(=O)Nc4cccc(C)c4C)ccc2-3)c1C` gave a pIC50 of 5.00.
With `CC(C(=O)Nc1ccccc1F)N(C)CC(=O)Nc1cccc2ccccc12` (stereo unspecified) the IC50 was > 40 µM (inactive).
In the case of `COc1ncc(-c2ccc3nccc(-c4ccncc4)c3c2)cc1NS(C)(=O)=O`, the pIC50 was 6.00.
Work on `Cc1nc(-c2nc(NCc3ccc(Cl)cc3)c3cccnc3c2O)n[nH]1` yielded a pIC50 of 6.10.
`CCc1cccc(CC)c1-n1c(SCC(=O)N2CC(=O)Nc3ccccc32)nnc1-c1cccnc1` gave a pIC50 of 6.00.
With `COc1cc(F)c2ncc(F)c(CCN3CC[C@H](NCc4cc5c(cn4)OCS5)[C@@H](O)C3)c2c1` the pIC50 was 6.30.
Work on `Cc1[nH]n2c(=O)c3c(nc2c1-c1ccc(Cl)cc1)CCCC3` yielded a pIC50 of 6.49.
For `O=C(NCCc1ccccn1)C(c1cn[nH]c1)N1CCN(c2ccc(Cl)c(Cl)c2)CC1` (stereo unspecified), the IC50 was > 40 µM (inactive).
`O=C(c1ccc(O)c(Cl)c1)N1CCN(c2cnccn2)CC1` was tested, and the IC50 was > 40 µM (inactive).
`O=C(NCCc1csc(-c2ccc(F)cc2)n1)c1cccs1` was tested, and the pIC50 was 6.70.
`Cn1cc(CN2CCN(c3ccc4c(c3)CCN(C(=O)[C@H]3C[C@@H]3c3ccccc3)CC4)CC2)cn1` was tested, and the pIC50 was 4.40.
With `COc1ccc(C2CC(c3ccc(NS(C)(=O)=O)cc3)=NN2C(=O)c2cccs2)cc1OC` (stereo unspecified) the pIC50 was 4.60.
`COc1ccc(C(=O)Nc2ccc(NC(=O)CO)cc2)cc1` showed a pIC50 of 6.60.
With `COc1ccc(C2C3CCCCC3(O)CCN2CC(=O)Nc2ccc(Cl)cc2Cl)cc1` (stereo unspecified) the pIC50 was 4.60.
For `CS(=O)(=O)c1ccc(Nc2nccc(Nc3n[nH]c4ccc(F)cc34)n2)c(F)c1`, the pIC50 was 6.10.
`CCC(=O)Nc1ccc(C(=O)Nc2ccccc2-c2ccccc2)cc1` was tested, and the pIC50 was 4.60.
With `Cc1ccc(NC(=O)c2ccnc(N3CCCC3)c2)cc1-c1cc(C(N)=O)ccc1C` the pIC50 was 6.60.
`Cc1ccccc1NS(=O)(=O)c1ccc2[nH]cc(C(=O)NC3CCCC3)c(=O)c2c1` was tested, and the pIC50 was 6.20.
For `Cc1cc2nc(N3CC[C@H]3C(N)=O)nc(Nc3cc(C4CC4)[nH]n3)c2s1`, the pIC50 was 6.89.
`O=C(CN1CCC2(O)CCCCC2C1c1ccc2c(c1)OCO2)Nc1ccc(Cl)cc1Cl` (stereo unspecified) gave a pIC50 of 5.10.
`CC1CCCCN1C(=O)NCCc1coc(-c2ccc(F)cc2)n1` (stereo unspecified) gave a pIC50 of 6.80.
